What was measured:
[1] = system: primary human dermal fibroblasts; experiment: PDGF-induced proliferation, EdU incorporation assay; type: cell-based; conditions: Fibroblast, 24 h, NC: not converged
Description: (§1) The ability of compound A to inhibit PDGF-induced lung and dermal fibroblasts proliferation was determined by performing EdU (5-ethynyl-2′-deoxyuridine) incorporation assays. These assays were carried out using primary human lung or skin fibroblasts (Promocell). The cells were plated in 96-well plates in full growth medium for 24 h, followed by 24 h starvation in serum-free medium. The medium was then replaced by fresh medium containing PDGF and compound A to be tested (at concentrations ranging from 10^−4 M to 4.5 10^−8 M) for another 24 h. EdU was added to the cells for the last 16 h of the compound treatment. The culture medium was then removed, the cells were fixed with formaldehyde and the EdU incorporated in the DNA of diving cells was quantified using fluorescent Click-it assay according to the manufacturer's instructions (Invitrogen). […] Results were expressed as % of EdU-positive cells out of the total cell number. The results present the mean of biological triplicates. Dose-effect curves and IC50 values were calculated using the GraphPad Prism software.

[2] = system: primary human lung fibroblasts; experiment: as above; type: cell-based; conditions: Fibroblast, 24 h, NC: not converged
Description: as §1

[3] = system: primary human dermal fibroblasts; experiment: TGFβ-induced fibroblasts to myofibroblasts transition (FMT), α-SMA immunocytochemistry; type: cell-based; conditions: Fibroblast, α-SMA-positive cells, 48 h, NC: not converged
Description: (§2) The ability of compound A to inhibit TGFβ-induced lung and dermal fibroblasts to myofibroblasts transition (FMT) was determined by performing immunocytochemistry assays for the myofibroblast marker, α-smooth muscle actin (α-SMA). These assays were carried out using primary human lung or skin fibroblasts (Promocell). The cells were plated in 96-well plates in full growth medium for 24 h, followed by 24 h starvation in serum-free medium. The medium was then replaced by fresh medium containing TGFβ and compound A to be tested (at concentrations ranging from 10^−4 M to 4.5 10^−8 M) for another 48 h. The culture medium was then removed, the cells were fixed with formaldehyde and stained with a primary mouse α-SMA antibody (Sigma) and secondary fluorescence-labelled goat-anti-mouse antibody (Invitrogen). α-SMA expression was quantified using Meta Xpress software. […] Results were expressed as % of α-SMA-positive cells out of the total cell number. The data was normalised to the TGFβ treatment alone, which was taken as 100%. The results present the mean of biological triplicates. Dose-effect curves and IC50 values were calculated using the GraphPad Prism software.

[4] = system: primary human lung fibroblasts; experiment: as above; type: cell-based; conditions: Fibroblast, α-SMA-positive cells, 48 h, NC: not converged
Description: as §2

[5] = target: human PPARγ (Homo sapiens, UniProt P37231); experiment: cell-based
[6] = target: mouse PPARγ (Mus musculus, UniProt P37238); experiment: cell-based
[7] = system: bleomycin-exposed mice; experiment: Bleomycin-induced pulmonary fibrosis in mice; conditions: vs vehicle
Description: At the end of the treatment, animals were sacrificed and plasma samples and livers were harvested. Expression of genes that are known to be implicated in the pulmonary inflammation process was quantified and plasmatic levels of lung parameters were measured.
The animals were housed in groups of 3-10 in polypropylene cages (floor area=1032 cm^2) under standard conditions: room temperature (22±2° C.), hygrometry (55±10%), light/dark cycle (12 h/12 h), air replacement (15-20 volumes/hour), water and food (SDS, RM1) ad libitum. Mice were allowed to accommodate themselves for at least 5 days prior to the experimentation. Mice were numbered by marking their tail using indelible markers.
Bleomycin (Laboratoire Bellon) was dissolved in 0.9% NaCl (CDM Lavoisier, France) just before use.
On day 14, 2 hours after dosing, animals were anaesthetised with pentobarbital (60 mg/kg, ip) and blood was collected using cardiac puncture. […] Blood sampling (0.9 mL of total blood) was placed in pre-chilled 2-mL lithium-heparin collection tubes. The blood samples were gently mixed, placed on crushed ice and centrifuged within 30 min of sampling at approximately 1500×g for 10 min at approximately +4° C. For each blood sampling, the resultant plasma was separated into 2 aliquots (at least 100 μL each) and transferred using disposable plastic material into polypropylene tubes. The samples were immediately transferred in the upright position to a freezer where they were kept at −20° C.
After terminal blood sampling, lung tissue was removed: • A first tissue sample (middle lobe) was harvested and fixed with paraformaldehyde, and kept at 5±3° C. • A second tissue sample (right lobe) was frozen in liquid nitrogen and kept at −20° C.
For the quantification of collagen, sections were stained with Picro-Sirius red and counterstained with Mayer's haematoxylin. […] For all slides, analysis was performed by a single experimenter strictly in the same conditions.
mRNA extraction was performed on small frozen lung samples (50-100 mg). Briefly, samples were cryogenically ground with mortar and pestle. […] RNA quantity was determined with Nanodrop (ND2000 Thermo Scientific) and RNA quality was verified with Bioanalyzer (2100 Agilent Technology).
Real Time PCR was performed on ABI PRISM 7900 apparatus Raw data from ABI7900 were exported in text format. […] Each RNA samples were reverse transcribed and quantified in triplicate.
Samples of lung and supernatants were kept on ice during all experiment. For extraction, the manufacturer recommends 10 mg of tissue for 100 μl T-Per+1 μl “Halt-protease” (100×).
50 ml of T-Per buffer were prepared, to which 500 μl of “Halt-protease” (100×) were added, and the mixture was kept on ice. Samples of 50 to 70 mg of lung just thawed were weighed and cut into small pieces, and 1 ml of cold PBS was added to wash the tissue. The mixture was centrifuged at 500 g during 5 min at 4° C., and the supernatant was discarded. 100 μl/10 mg of T-Per+antiproteases (100×) were added, crushing the lung with a Potter, with 5 or 6 twists, up and down. The mixture was centrifuged at 10000 g during 5 min at 4° C. The supernatant was removed, aliquoted and kept at −20° C. for the subsequent measurement of biomarkers.
All proteins were quantified with ELISA Kit, according to the instructions of the manufacturers: • osteopontin: Quantikine Mouse Osteopontin immunoassay, R&D SYSTEMS®, Ref:MOST00 • MCP-1: Quantikine Mouse CCL2/JE/MCP-1 ELISA Kit, R&D SYSTEMS®, ref: MJE00 • TIMP-1: Mouse TIMP-1, R&D SYSTEMS®, Ref: TM100.
All parameters were analysed using Graphpad software (version 5.1). The parameters were analysed as followed: • Using one-way ANOVA (treatment) to compare groups (1, 2 and 3). […] When ANOVA was found significant, a Dunnett's test was used to compare group 1 to group 4, to group 5, to group 6 and to group 7).

Sequence of mouse PPARγ (P37238 238-505 limits assumed): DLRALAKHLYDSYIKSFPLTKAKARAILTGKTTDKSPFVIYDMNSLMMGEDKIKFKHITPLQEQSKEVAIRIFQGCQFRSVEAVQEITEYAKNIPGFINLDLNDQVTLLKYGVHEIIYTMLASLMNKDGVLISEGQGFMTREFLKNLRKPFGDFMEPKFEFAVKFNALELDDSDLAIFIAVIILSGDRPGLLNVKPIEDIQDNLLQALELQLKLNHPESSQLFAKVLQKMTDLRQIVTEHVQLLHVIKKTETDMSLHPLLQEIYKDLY
Sequence of human PPARγ (P37231 238-505 limits assumed): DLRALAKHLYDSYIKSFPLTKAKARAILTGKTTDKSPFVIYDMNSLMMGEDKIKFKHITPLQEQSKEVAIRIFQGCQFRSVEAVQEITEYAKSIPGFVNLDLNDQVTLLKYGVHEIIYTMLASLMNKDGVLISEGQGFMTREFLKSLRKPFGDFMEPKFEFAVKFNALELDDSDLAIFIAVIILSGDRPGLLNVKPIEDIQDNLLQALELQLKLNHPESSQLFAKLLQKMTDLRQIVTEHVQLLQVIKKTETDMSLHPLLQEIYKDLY

How did the IC50 [1] turn out when O=C(O)CCCc1cc2cc(Cl)ccc2n1S(=O)(=O)c1ccc2ncsc2c1 [compound A, 5-Chloro-1-[(6-benzothiazolyl)sulfonyl]-1H-indole-2-butanoic acid] was run?
The IC50 was 11.5 µM.

And the IC50 [2]?
The IC50 was 10.9 µM.

And the IC50 [3]?
Its IC50 is about 11.2 µM.

And the IC50 [4]?
Its IC50 is 10.8 µM.

What about the EC50 [5] of the same compound?
The EC50 was 180 nM.

What about the EC50 [6] of the same compound?
Its EC50 is 170 nM.

What about the “MCP-1 expression (lung)” value ([7]; 30 mg/kg/day po 15 days) of the same compound?
The value was “inhibited MCP-1 expression compared to vehicle without reaching significance”.

What about the “TIMP-1 expression (lung)” value ([7]; 30 mg/kg/day po 15 days) of the same compound?
The value was “inhibited TIMP-1 expression compared to vehicle without reaching significance”.

And the “lung MCP-1 levels” value ([7]; 30 mg/kg/day po 15 days)?
The value was “reduced MCP-1 levels compared to vehicle without reaching significance”.

And the “lung TIMP-1 levels” value ([7]; 30 mg/kg/day po 15 days)?
Its value is “significantly reduced TIMP-1 levels”.

And the lung osteopontin levels ([7]; 30 mg/kg/day po 15 days)?
Its lung osteopontin levels is “reduced osteopontin levels compared to vehicle without reaching significance”.

And the “osteopontin expression (lung)” value ([7]; 30 mg/kg/day po 15 days)?
The value was “significantly inhibited osteopontin expression”.

What about the “Col1a expression (lung)” value ([7]; 100 mg/kg/day po 15 days) of the same compound?
The value was “significantly inhibited Col1a expression”.

What about the “Col3a expression (lung)” value ([7]; 100 mg/kg/day po 15 days) of the same compound?
Its value is “significantly inhibited Col3a expression”.

What about the “MCP-1 expression (lung)” value ([7]; 100 mg/kg/day po 15 days) of the same compound?
Its value is “inhibited MCP-1 expression compared to vehicle without reaching significance”.

What about the “TGFβR-1 expression (lung)” value ([7]; 100 mg/kg/day po 15 days) of the same compound?
Its value is “significantly inhibited TGFβR-1 expression”.

What about the “TIMP-1 expression (lung)” value ([7]; 100 mg/kg/day po 15 days) of the same compound?
The value was “inhibited TIMP-1 expression compared to vehicle without reaching significance”.

And the “collagen deposition (lung)” value ([7]; 100 mg/kg/day po 15 days)?
The value was “significantly decreased collagen deposition levels”.

What about the “fibronectin expression (lung)” value ([7]; 100 mg/kg/day po 15 days) of the same compound?
Its value is “significantly inhibited fibronectin expression”.

What about the “lung MCP-1 levels” value ([7]; 100 mg/kg/day po 15 days) of the same compound?
The value was “reduced MCP-1 levels compared to vehicle without reaching significance”.

What about the “lung TIMP-1 levels” value ([7]; 100 mg/kg/day po 15 days) of the same compound?
Its value is “significantly reduced TIMP-1 levels”.

What about the lung osteopontin levels ([7]; 100 mg/kg/day po 15 days) of the same compound?
Its lung osteopontin levels is “reduced osteopontin levels compared to vehicle without reaching significance”.

What about the “osteopontin expression (lung)” value ([7]; 100 mg/kg/day po 15 days) of the same compound?
The value was “significantly inhibited osteopontin expression”.
